Results as given in the NIST ThermoML archive (doi:10.1016/j.fluid.2015.03.027).
Numbers after ± are expanded uncertainties.

How the values were obtained:
[1] = 298.15 K; 101.33 kPa; Liquid; Vibrating tube method
[2] = refractive index (Na D-line) (dimensionless); conditions: 298.15 K; 101.33 kPa; Liquid; Standard Abbe refractometry

mass density [1] | Compound | refractive index [2]
679.48 ± 1 kg/m3 | CCCCCCC [heptane] | 1.38519 ± 0.00073
1036.68 ± 1.3 kg/m3 | CCCC[n+]1ccc(C)cc1.N#CC(=C=[N-])C#N [1-butyl-4-methylpyridinium tricyanomethanide] | 
799.52 ± 1 kg/m3 | CCCO [propan-1-ol] | 1.38375 ± 0.00072

Compound | mass density [1] | refractive index [2]
CC(C)=O [acetone] | 785.23 ± 1 kg/m3 | 1.356 ± 0.0007
c1ccncc1 [pyridine] | 982.85 ± 1 kg/m3 | 1.5094 ± 0.00072
